From ChEMBL document CHEMBL3875230, “Structure-Guided Design of Novel, Potent, and Selective Macrocyclic Plasma Kallikrein Inhibitors” (ACS Med Chem Lett, 2017) come the findings set out here.

pIC50: −log10 of the molar value.

The target of one data set is Plasma kallikrein (Homo sapiens, UniProt P03952). Put plainly: Inhibition of human plasma kallikrein using D-Pro-Phe-Arg-pNA as substrate preincubated for 30 mins followed by substrate addition. Format: cell-free.
The next data set addresses Coagulation factor X (Homo sapiens, UniProt P00742). As to the kind of experiment: Inhibition of factor 10a (unknown origin) using N-Z-D-Arg-Gly-Arg-pNA as substrate preincubated for 30 mins followed by substrate addition.
Data set [1] addresses Tissue-type plasminogen activator (Homo sapiens, UniProt P00750). Put plainly: Inhibition of tPA (unknown origin) using Methylsulfonyl-D-Phe-Gly-Arg-pNA as substrate preincubated for 30 mins followed by substrate addition.
A short description of data set [2]: Inhibition of bovine trypsin using S-2765 as substrate incubated for 30 mins followed by substrate addition. Further details: species or system Bos taurus.
Data set [3] in a line: Half life in rat liver microsomes in presence of NADPH by LC/MS/MS analysis. Format: ADME.
A further data set deals with Prothrombin (Homo sapiens, UniProt P00734). Put plainly: Inhibition of alpha-thrombin (unknown origin) using D-Phe-Pip-Arg-pNA as substrate preincubated for 30 mins followed by substrate addition.
The next data set has as its target Coagulation factor XI (Homo sapiens, UniProt P03951). Put plainly: Inhibition of factor 11a (unknown origin) using S-2366 as substrate incubated for 30 mins followed by substrate addition.
For a further data set, the target named is T1, Coagulation factor XII (Homo sapiens, UniProt P00748).
T1 sequence (P00748 whole entry): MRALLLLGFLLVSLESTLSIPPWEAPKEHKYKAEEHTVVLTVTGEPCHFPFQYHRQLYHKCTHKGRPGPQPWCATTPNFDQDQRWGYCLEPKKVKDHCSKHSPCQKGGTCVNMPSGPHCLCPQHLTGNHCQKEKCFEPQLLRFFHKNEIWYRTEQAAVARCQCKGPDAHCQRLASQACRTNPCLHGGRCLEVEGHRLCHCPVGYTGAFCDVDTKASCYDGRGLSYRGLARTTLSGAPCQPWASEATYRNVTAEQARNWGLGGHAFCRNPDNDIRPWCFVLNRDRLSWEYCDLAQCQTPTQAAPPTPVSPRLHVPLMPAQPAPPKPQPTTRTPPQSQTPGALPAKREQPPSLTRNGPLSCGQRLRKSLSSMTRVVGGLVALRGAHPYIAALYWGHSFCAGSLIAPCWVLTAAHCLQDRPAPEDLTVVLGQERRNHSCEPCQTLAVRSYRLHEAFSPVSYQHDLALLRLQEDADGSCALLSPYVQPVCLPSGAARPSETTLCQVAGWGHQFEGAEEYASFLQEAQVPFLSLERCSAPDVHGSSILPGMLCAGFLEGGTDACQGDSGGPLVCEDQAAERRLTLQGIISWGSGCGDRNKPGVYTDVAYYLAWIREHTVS
As to the kind of experiment: Inhibition of factor 12a (unknown origin) using D-Pro-Phe-Arg-pNA as substrate preincubated for 30 mins followed by substrate addition.

Another data set addresses Plasminogen (Homo sapiens, UniProt P00747). As to the kind of experiment: Inhibition of Lys-plasmin (unknown origin) using Tosyl-Gly-Pro-Lys-4-nitranilide as substrate preincubated for 30 mins followed by substrate addition.
The nature of data set [4]: Apparent permeability across MDCK cells at 1 uM. Particulars: dog. Format: ADME, cell-based, Canis lupus familiaris.
Data set [5] is described as follows: Cmax in Sprague-Dawley rat plasma at 20 mg/kg administered via oral gavage measured up to 24 hrs by LC-MS/MS analysis. Further details: dose 20 mg/kg, route oral. It counts as ADME, organism-based.
The nature of data set [6]: Oral bioavailability in Sprague-Dawley rat plasma at 20 mg/kg administered via gavage measured up to 24 hrs by LC-MS/MS analysis. Format: ADME, organism-based.

Sequence of Coagulation factor X (P00742 41-179 limits assumed): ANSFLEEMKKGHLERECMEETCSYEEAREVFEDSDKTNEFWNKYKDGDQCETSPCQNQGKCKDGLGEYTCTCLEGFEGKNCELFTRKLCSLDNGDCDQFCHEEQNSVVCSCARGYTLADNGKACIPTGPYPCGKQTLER
Sequence of Coagulation factor X (P00742 235-488 limits assumed): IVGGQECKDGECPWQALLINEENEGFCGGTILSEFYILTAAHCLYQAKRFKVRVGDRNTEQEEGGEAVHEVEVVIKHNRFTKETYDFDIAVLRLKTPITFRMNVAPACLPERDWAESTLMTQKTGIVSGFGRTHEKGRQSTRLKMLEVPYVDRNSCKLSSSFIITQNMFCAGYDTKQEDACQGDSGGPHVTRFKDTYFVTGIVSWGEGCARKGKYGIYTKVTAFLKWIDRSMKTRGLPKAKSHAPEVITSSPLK
Sequence of Tissue-type plasminogen activator (P00750 whole entry): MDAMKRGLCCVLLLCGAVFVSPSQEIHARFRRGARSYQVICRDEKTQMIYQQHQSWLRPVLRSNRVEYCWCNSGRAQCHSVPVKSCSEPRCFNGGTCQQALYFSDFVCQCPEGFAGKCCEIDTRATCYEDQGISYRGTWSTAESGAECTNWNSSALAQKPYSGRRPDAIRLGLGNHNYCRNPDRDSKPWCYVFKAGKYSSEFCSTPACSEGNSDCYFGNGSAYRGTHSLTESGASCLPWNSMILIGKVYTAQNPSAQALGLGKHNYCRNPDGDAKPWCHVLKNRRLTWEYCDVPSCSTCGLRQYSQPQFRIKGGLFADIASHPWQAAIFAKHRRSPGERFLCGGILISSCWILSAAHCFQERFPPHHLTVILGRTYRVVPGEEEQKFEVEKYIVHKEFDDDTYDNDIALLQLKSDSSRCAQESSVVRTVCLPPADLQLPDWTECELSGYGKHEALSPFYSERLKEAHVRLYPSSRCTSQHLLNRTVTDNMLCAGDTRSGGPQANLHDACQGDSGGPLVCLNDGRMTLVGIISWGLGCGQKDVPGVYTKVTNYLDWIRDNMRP
Sequence of Plasminogen (P00747 97-580 limits assumed): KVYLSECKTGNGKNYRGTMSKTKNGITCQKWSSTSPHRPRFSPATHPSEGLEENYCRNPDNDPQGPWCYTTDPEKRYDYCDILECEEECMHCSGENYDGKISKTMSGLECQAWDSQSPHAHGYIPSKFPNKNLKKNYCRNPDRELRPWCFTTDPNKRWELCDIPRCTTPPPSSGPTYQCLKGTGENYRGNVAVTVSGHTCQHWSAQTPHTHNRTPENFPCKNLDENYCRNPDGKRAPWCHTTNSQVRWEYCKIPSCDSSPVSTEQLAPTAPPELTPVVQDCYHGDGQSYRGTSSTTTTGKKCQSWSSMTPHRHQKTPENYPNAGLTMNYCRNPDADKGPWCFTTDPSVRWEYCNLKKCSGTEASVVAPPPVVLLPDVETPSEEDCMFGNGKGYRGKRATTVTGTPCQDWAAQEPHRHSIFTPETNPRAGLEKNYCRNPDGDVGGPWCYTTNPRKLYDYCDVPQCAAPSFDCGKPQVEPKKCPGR
Sequence of Plasminogen (P00747 581-810 limits assumed): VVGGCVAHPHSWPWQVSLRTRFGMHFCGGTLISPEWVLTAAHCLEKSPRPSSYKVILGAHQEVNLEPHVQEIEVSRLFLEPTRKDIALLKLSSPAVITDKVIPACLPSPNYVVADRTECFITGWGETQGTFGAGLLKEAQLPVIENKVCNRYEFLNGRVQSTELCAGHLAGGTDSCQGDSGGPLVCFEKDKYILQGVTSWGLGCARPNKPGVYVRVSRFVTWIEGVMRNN
Sequence of Plasma kallikrein (P03952 20-390 limits assumed): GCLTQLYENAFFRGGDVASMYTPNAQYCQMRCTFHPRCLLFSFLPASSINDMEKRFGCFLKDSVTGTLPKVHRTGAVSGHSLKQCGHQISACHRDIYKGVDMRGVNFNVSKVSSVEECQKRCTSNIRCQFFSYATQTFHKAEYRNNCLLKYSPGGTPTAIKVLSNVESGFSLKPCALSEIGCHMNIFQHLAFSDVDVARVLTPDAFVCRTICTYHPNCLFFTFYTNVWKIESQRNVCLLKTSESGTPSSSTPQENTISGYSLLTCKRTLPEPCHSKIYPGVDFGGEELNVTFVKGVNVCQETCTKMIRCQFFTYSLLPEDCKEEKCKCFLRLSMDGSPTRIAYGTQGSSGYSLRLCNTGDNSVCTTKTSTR
Sequence of Plasma kallikrein (P03952 391-638 limits assumed): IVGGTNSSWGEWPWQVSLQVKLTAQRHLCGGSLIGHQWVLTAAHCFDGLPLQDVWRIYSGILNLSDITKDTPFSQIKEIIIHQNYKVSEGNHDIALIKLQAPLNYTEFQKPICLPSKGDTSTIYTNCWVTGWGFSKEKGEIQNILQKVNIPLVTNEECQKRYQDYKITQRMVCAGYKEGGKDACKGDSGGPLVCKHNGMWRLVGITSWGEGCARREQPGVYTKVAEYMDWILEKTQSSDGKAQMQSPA
Sequence of Coagulation factor XI (P03951 19-387 limits assumed): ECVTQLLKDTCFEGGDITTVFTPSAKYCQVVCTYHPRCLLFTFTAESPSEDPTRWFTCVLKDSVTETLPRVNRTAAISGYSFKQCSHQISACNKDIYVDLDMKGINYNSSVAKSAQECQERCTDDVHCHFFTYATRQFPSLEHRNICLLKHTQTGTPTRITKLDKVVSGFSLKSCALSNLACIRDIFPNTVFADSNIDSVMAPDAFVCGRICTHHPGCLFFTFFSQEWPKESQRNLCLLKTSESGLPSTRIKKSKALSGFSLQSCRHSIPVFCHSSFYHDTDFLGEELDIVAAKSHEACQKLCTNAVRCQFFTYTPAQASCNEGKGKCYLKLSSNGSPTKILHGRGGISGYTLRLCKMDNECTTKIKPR
Sequence of Coagulation factor XI (P03951 388-625 limits assumed): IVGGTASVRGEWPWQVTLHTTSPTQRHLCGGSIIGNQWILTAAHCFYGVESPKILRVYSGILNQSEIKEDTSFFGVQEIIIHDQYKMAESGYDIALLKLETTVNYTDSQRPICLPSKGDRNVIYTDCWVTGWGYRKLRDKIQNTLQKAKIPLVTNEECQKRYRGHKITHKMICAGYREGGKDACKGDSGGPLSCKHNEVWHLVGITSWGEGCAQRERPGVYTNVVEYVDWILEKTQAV

`Cc1cc(N)nc2c1CNC(=O)c1cnn(c1)Cc1ccc(Cn3cccn3)cc1OCC/C=C/CCO2` showed a negative-log IC50 (pIC50) against Plasma kallikrein of 4.27.
Consider `Cc1nc(N)cc2c1CNC(=O)c1cnn(c1)Cc1ccc(Cn3cccn3)cc1OCCC/C=C/CCO2`, for which the pIC50 at Coagulation factor X is < 3.70; in [1], < 3.70; against Plasma kallikrein, 8.70; in data set [2] it was < 3.70; at Prothrombin it was < 3.70; on Coagulation factor XI, 5.44. Also, the negative logarithm of the IC50 (pIC50) against Coagulation factor XII and against Plasminogen was < 3.70 in each case. The half-life in data set [3] is < 5 min. Further, the apparent permeability (Papp) at 1 µM in data set [4] is < 1 ×10⁻⁶ cm/s.
On to `Cc1nc(N)cc2c1CNC(=O)c1cnn(c1)Cc1ccc(Cn3cccn3)cc1OCC/C=C/CCCO2`, for which the pIC50 is < 3.70 at Coagulation factor X; < 3.70 in data set [1]; 6.82 against Plasma kallikrein; < 3.70 in [2]; < 3.70 against Prothrombin; 4.90 against Coagulation factor XI. Also, the figures for the pIC50 against Coagulation factor XII and against Plasminogen were < 3.70 and 5.00, respectively. The half-life in data set [3] is < 5 min. The Papp at 1 µM in data set [4] is < 1 ×10⁻⁶ cm/s.
Turning to `Cc1cc(N)nc2c1CNC(=O)c1cnn(c1)Cc1ccc(Cn3cccn3)cc1OCC/C=C\CCO2`, the pIC50 against Plasma kallikrein was < 2.52.
As for `Cc1nc(N)cc2c1CNC(=O)c1cnn(c1)Cc1ccc(Cn3cccn3)cc1OCCC/C=C\CCO2`, the negative logarithm of the IC50 (pIC50) at Coagulation factor X is < 3.70; in data set [1], < 3.70; on Plasma kallikrein it was 7.37; in [2] it was < 3.70; against Prothrombin, < 3.70; at Coagulation factor XI, 4.39. Further, the negative logarithm of the IC50 (pIC50) against Coagulation factor XII and on Plasminogen was < 3.70 each time. Further, the half-life in [3] is < 5 min. The Papp at 1 µM in data set [4] was < 1 ×10⁻⁶ cm/s.
`Cc1nc(N)cc2c1CNC(=O)c1cnn(c1)Cc1ccc(Cn3cccn3)cc1OCC/C=C\CCO2`: at Plasma kallikrein, the negative-log IC50 (pIC50) was 5.80.
On the same count and under the same terms, the same measure for `Cc1nc(N)cc2c1CNC(=O)c1cnn(c1)Cc1ccc(Cn3cccn3)cc1OCC/C=C/CCO2`: 5.92.
Still for that read-out and setting: with `Cc1nc(N)cc2c1CNC(=O)c1cnn(c1)Cc1ccc(Cn3cccn3)cc1OCCCCCCO2` the figure was 5.08.
Consider `Cc1nc(N)ccc1CNC(=O)c1cnn(Cc2ccc(Cn3cccn3)cc2)c1`, for which the pIC50 against Coagulation factor X was < 3.00; in data set [1], < 3.00; against Plasma kallikrein, 8.62; in data set [2] it was 3.24; at Prothrombin, < 3.00; against Coagulation factor XI, 3.97. Further, the negative logarithm of the IC50 (pIC50) on Coagulation factor XII and against Plasminogen was < 3.00 in each case. In data set [5], this molecule yielded a Cmax of 25 ng/mL. In addition, the half-life in [3] was found to be 48 min. The bioavailability in data set [6] came out at 6%. The Papp at 1 µM in [4] was < 1 ×10⁻⁶ cm/s.
For `Cc1nc(N)cc2c1CNC(=O)c1cnn(c1)Cc1ccc(Cn3cccn3)cc1OCCCC=CCCO2` (mixture of isomers), the negative logarithm of the IC50 (pIC50) against Coagulation factor X is < 3.70; in [1], < 3.70; against Plasma kallikrein, 8.32; in data set [2], < 3.70; on Prothrombin, < 3.70; at Coagulation factor XI it was 4.93. The values for the pIC50 on Coagulation factor XII and against Plasminogen were < 3.70 and 4.67, respectively. Besides, the half-life in data set [3] is < 5 min.
